From doi:10.1101/2022.02.23.481635v1 (biorxiv, 2022)

Legend:
Assay type in all cases: binding
[1] = biological target: T1, 14-3-3σ/TAZ complex (Homo sapiens, UniProt P31947+Q9GZV5); assay: STD NMR dose response
[2] = biological target: T1, 14-3-3σ/TAZ complex; assay: STD NMR; details: 300 μM fragment, 10 μM 14-3-3σ, 100 μM TAZ peptide, relative to apo-14-3-3σ
[3] = biological target: 14-3-3/ABL1 complex (Homo sapiens, UniProt P00519+P31947); assay: STD NMR dose response
Chain of 14-3-3/ABL1 complex (P31947 whole entry, other chains not shown): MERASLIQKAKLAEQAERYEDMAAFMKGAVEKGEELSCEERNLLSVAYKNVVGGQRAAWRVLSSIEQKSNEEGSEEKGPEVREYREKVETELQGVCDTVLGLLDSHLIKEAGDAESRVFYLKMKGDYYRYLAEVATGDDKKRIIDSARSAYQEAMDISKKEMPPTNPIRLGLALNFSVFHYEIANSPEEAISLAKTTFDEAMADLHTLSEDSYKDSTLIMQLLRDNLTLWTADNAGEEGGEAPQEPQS

T1 sequence (P31947 whole entry, other chains not shown, the tested form may be a part): as the sequence (P31947 whole entry, other chains not shown) above

EC50 [1] [µM]	fold STD signal (I+peptide / I-peptide) [2] [fold]	EC50 [3] [µM]	Compound
2300 ± 300			N=C(N)c1cc2ccccc2o1 [F9]
	1.9		CCN1CCN(c2cc(C(=N)N)ccn2)CC1 [F4]
1800 ± 400		8700 ± 400	COC(=O)c1cccc(C(=N)N)c1 [F5]
